The supplement of paper PMC6206229
≈ marks a conversion by molar mass, not a printed value.

Assays:
[1] = tested on: Staphylococcus aureus ATCC 700699 (MRSA); test: minimum inhibitory concentration; extreme values may be limits of the assay
Procedure, shortened: (§1)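 Methicillin-susceptible and methicillin-resistant Staphylococcus aureus were assessed by broth microdilution with a resazurin read-out, compounds spanning 0 to 100 µM and incubated for 24 h at 37°C before 30 µl of 0.015% resazurin was added for 2–4 h. For the minimum inhibitory concentration, the lowest concentration whose well stayed blue rather than pink was recorded.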

[2] = tested on: Staphylococcus aureus ATCC 29213 (MSSA); test: as above
Procedure, shortened: as §1

Structure (SMILES)	minimum inhibitory concentration [1] [µM]	minimum inhibitory concentration [2] [µM]
Clc1ccc(Cl)c(CO[C@H]2CCCC[C@@H]2n2ccnc2)c1	> 50	> 50
Cc1ccc2[nH]c3c(NCCN(C)C)ncnc3c2c1	> 50	> 50
COc1ccc(C(=N)N)cc1-c1cn(-c2ccc(C(=N)N)cc2)nn1	> 50	> 50
CN1CCC(NCc2cccc(-c3ccc(S(=O)(=O)NCc4ccccc4)cc3)c2)CC1	> 50	> 50
CNCCC(Oc1ccc(C(F)(F)F)cc1)c1ccccc1 (stereo unspecified)	> 50	> 50
Brc1cncc(-c2cc(NCCCn3ccnc3)nc(-c3ccccc3)n2)c1	> 50	> 50
Cc1ccc(-c2cc(C(=O)Nc3cccnc3)c3cc(Br)ccc3n2)cc1	50 (≈ 20.9 µg/mL)	50 (≈ 20.9 µg/mL)
O=C(CCC1CCCCC1)Nc1cccc(-c2nnc(-c3ccco3)o2)c1	> 50	> 50
COc1cc(-c2cc(-c3ccc(S(C)(=O)=O)cc3)cnc2N)ccc1O	> 50	> 50
Cc1[nH]c2cc(F)cc(F)c2c(=O)c1-c1ccc(Oc2ccc(OC(F)(F)F)cc2)cc1	> 50	> 50
N=C(N)c1ccc(-c2cc(-c3ccccc3)on2)cc1	> 50	> 50
Cc1cccc(-c2nc(Nc3ccncn3)c3sccc3n2)n1	> 50	> 50
CC(C)(C)c1cnc(NC(=O)c2ccccc2O)s1	> 50	> 50
Cc1cnc(N2CCN[C@@H](Cc3ccccc3)C2)nc1Oc1ccc(-n2ccnc2)cc1	> 50	> 50
CCOC(=O)c1c(NC(=O)c2c(F)c(F)c(F)c(F)c2F)sc(C(N)=O)c1C	> 50	> 50
COc1cc(C(F)(F)F)nc2ccc(C)c(N)c12	> 50	> 50
CCCn1nnc(NC(=O)COc2ccc(C3CCCCC3)cc2)n1	> 50	> 50
COc1ccc2nc(C)cc(OCC(=O)NCc3ccccc3)c2c1	> 50	> 50
Cc1ccc2nc(Cl)c(CNCc3cccs3)cc2c1	> 50	> 50
Cc1ccc(NC(=O)c2cc(S(=O)(=O)NC(C)(C)C)ccc2C)nc1	> 50	> 50
Nc1nccc2ccc(Oc3ccncc3)cc12	50 (≈ 11.9 µg/mL)	50 (≈ 11.9 µg/mL)
O=C(CN1CCOCC1)Nc1ccc2ncnc(Nc3ccc(OCc4cccc(F)c4)c(Cl)c3)c2c1	> 50	> 50
O=C(C1CCN(c2nnnn2-c2ccccc2)CC1)N1CCc2ccccc2C1	> 50	> 50

Structure (SMILES)	minimum inhibitory concentration [1] [µM]	minimum inhibitory concentration [2] [µM]
CN1CCC(c2cc(-c3ccncc3)c(-c3ccc(F)cc3)[nH]2)CC1	> 50	> 50
CO[C@@H](C(=O)N1Cc2[nH]nc(NC(=O)c3ccc(N4CCN(C)CC4)cc3)c2C1)c1ccccc1	> 50	> 50
CCCn1c(NC(=O)c2ccc3ccccc3n2)nc2ccccc21	> 50	> 50
CC(C)=CCC/C(C)=C/CNCCNC1C2CC3CC(C2)CC1C3 (stereo unspecified)	50 (≈ 16.5 µg/mL)	50 (≈ 16.5 µg/mL)
CCc1ccccc1-n1c(C)cn2c3c(=O)n(C(C(=O)OC)C(C)C)c(=O)n(C)c3nc12 (stereo unspecified)	> 50	> 50
c1ccc(Oc2ccc(-c3cncc(-c4ccc5[nH]ccc5c4)n3)cc2)cc1	> 50	> 50
O=C(Nc1ccccc1)c1ccc(-c2cc3ccncc3cc2OC2CCNCC2)s1	50 (≈ 21.5 µg/mL)	50 (≈ 21.5 µg/mL)
CN1CCN(CCCOc2ncc(Nc3ncc(-c4ccc(C(F)(F)F)c(F)c4)nc3C(N)=O)cn2)CC1	> 50	> 50
O=C(NCCN1CCCC1)c1cc(NCCN2CCOCC2)nc2ccc(Cl)cc12	50 (≈ 21.6 µg/mL)	50 (≈ 21.6 µg/mL)
O=C(Nc1nnc(S)s1)c1cc(Br)ccc1Cl	> 50	> 50
CC(C)(C)C(O)C(Oc1ccc(-c2ccccc2)cc1)n1cncn1 (stereo unspecified)	> 50	> 50
Clc1cccc(C(c2ccc(CN3CCNCC3)cc2)n2ccnc2)c1 (stereo unspecified)	> 50	> 50
COC(=O)c1c(NC(=O)c2c(F)c(F)c(F)c(F)c2F)sc2c1CCCCC2	> 50	> 50
C[C@@H]1[C@H](O)[C@@H](C)/C=C/C=C/C=C/C=C/C=C/C=C/C=C/[C@H](O[C@@H]2O[C@H](C)[C@@H](O)[C@H](N)[C@@H]2O)C[C@@H]2O[C@](O)(C[C@@H](O)C[C@@H](O)[C@H](O)CC[C@@H](O)C[C@@H](O)CC(=O)O[C@H]1C)C[C@H](O)[C@H]2C(=O)O	50 (≈ 46.2 µg/mL)	50 (≈ 46.2 µg/mL)
CCCCN(CCCC)c1c(C#N)cc(S(=O)(=O)Nc2ccccc2)cc1C#N	> 50	> 50
O=C(NCCc1c[nH]c2ccccc12)c1cc2ccccc2oc1=O	> 50	> 50
Nc1nc2cc(-c3cncc(Oc4ccc(F)cc4)c3)ccc2[nH]1	50 (≈ 16 µg/mL)	50 (≈ 16 µg/mL)
O=C(Nc1cnc2ccccc2c1)c1cccc(-n2cnnn2)c1	> 50	> 50
CS(=O)(=O)c1cccc(-c2cnc3[nH]cc(-c4ccc(CCC(=O)O)cc4)c3c2)c1	> 50	> 50
O[C@@H](c1cc(C(F)(F)F)nc2c(C(F)(F)F)cccc12)[C@H]1CCCCN1	25 (≈ 9.46 µg/mL)	50 (≈ 18.9 µg/mL)
CC[C@@H](CO)NCCN[C@@H](CC)CO	> 50	> 50
CC1CS(=O)(=O)CCN1/N=C/c1ccc([N+](=O)[O-])o1 (stereo unspecified)	> 50	> 50
c1cncc(NCc2ccc(-c3cc4ccncc4cc3OC3CCNCC3)s2)c1	> 50	> 50

Structure (SMILES)	minimum inhibitory concentration [1] [µM]	minimum inhibitory concentration [2] [µM]
Cc1ccc2[nH]c(C3CCCNC3)c(-c3ccncc3)c2c1 (stereo unspecified)	> 50	> 50
Cc1cc(OCC(=O)Nc2ccc(C(C)C)cc2)n(C)c(=O)c1C#N	> 50	> 50
CCn1ncc2c(NC3CCOCC3)c(CNC(=O)c3ccnn3C)c(C)nc21	> 50	> 50
CS(=O)(=O)c1ccc(C(=O)N(CC2CCCO2)c2nc3ccccc3s2)cc1[N+](=O)[O-] (stereo unspecified)	> 50	> 50
CC(=O)Nc1ccc(-c2noc(CC3CCCN(Cc4cccc(F)c4C)C3)n2)cc1 (stereo unspecified)	> 50	> 50
Nc1ncc(-c2cn[nH]c2)cc1-c1nc2cc(Cl)cnc2[nH]1	> 50	> 50
Cc1nc(-c2ccccn2)nc(N2CCC(Cc3ccccc3)C2)c1Cl (stereo unspecified)	> 50	> 50
N#Cc1ccc(-c2ccc(OCC(N)=O)cc2)cc1	> 50	> 50
COc1ccc(C2=NN(C3CCCCCC3)C(=O)C2(C)C)cc1OCCCCOc1ccc(-c2nn[nH]n2)cc1	50 (≈ 27.3 µg/mL)	50 (≈ 27.3 µg/mL)
Cc1cc(NC(=O)c2ccc(S(=O)(=O)N(Cc3ccccc3)C(C)C)cc2)no1	> 50	> 50
c1ccc(Oc2ccc(-c3cc(N4CCOCC4)[nH]n3)cc2)cc1	> 50	> 50
COc1ccc(-c2cnc3cnc(-c4cccc(OC(C)C)c4)cn23)cc1	> 50	> 50
COc1ccccc1OCCCCn1c(C2CC2)nc2ccccc21	> 50	> 50
CC(C)C(C(=O)Nc1ccc(S(=O)(=O)N(C)C)cc1)c1ccc(Cl)cc1 (stereo unspecified)	> 50	> 50
CNC(=O)c1nn(C)c2c1C(C)(C)Cc1cnc(Nc3ccc(N4CCN(C)CC4)cc3)nc1-2	> 50	> 50
NCCCC(N)(C(=O)O)C(F)F (stereo unspecified)	> 50	> 50
CC(C)(C)OC(=O)N1CCN(c2cc(-c3ccc(Oc4ccccc4)cc3)n[nH]2)CC1	> 50	> 50
COc1ccc(-c2nn(C(C)C)c3ncnc(N)c23)cc1OC	> 50	> 50
O=C(Nc1c(O)cccc1-c1nc2c(C(=O)O)cccc2o1)c1cc(-c2ccccc2)on1	> 50	> 50
FC(F)(F)c1ccc(N(c2cccnc2)C2CCN(c3ccc(C(F)(F)F)cn3)CC2)cc1	> 50	> 50
CNC1C(OC2C(OC3C(O)C(O)C(N=C(N)N)C(O)C3N=C(N)N)OC(C)C2(O)C=O)OC(CO)C(O)C1O (stereo unspecified)	> 50	> 50
CC(C)(C)OC(=O)N1CCN(c2nccc(-c3ccc(-c4ccc(Cl)cc4)s3)n2)CC1	> 50	> 50
